From US3932471A, “Azide” (priority 1973, dated 1976)
Converted amounts (≈) assume the structure as drawn.

Assays:
Type in all cases: in vivo
Lygus Bug = experiment: Systemic test against Lygus bug
Text: (§1) Systemic Test of Compound 7268 Against Lygus Bug and Spotted Cucumber Beetle
(§2) The techniques used are essentially the same for the systemic tests described above in Example 15. The test compound is Compound 7268. There is one Sieva bean plant per pot and five adult insects are caged on each plant. One plant is used for each test species.

[1] = tested on: housefly (Musca domestica); experiment: Housefly spray test (HF); details: 72 h, contact activity rating, 50% mortality, three days
Method: (§3) The compounds are evaluated for biological activity against the following representative pests: Mexican bean beetle (Epilachna varivestis), Southern army worm (Prodenia eridania), housefly (Musca domestica), bean aphid (Aphis fabae), and red spider mite (Tetranychus sp.). The last two pests are treated both by contact and systemic application.
(§4) For purposes of comparison, results obtained with known Compound 7472, Compound 7577, and aldicarb are included in the test results. Each test compound is rated using the following scale:
This test determines the insecticidal activity of the compound being tested against adult houseflies, Musca domestica. Stock formulations containing 500 ppm of each test chemical are prepared using the procedure described in Example 15 and are diluted to obtain the appropriate lower concentrations.
Ten adult flies are placed in a cylindrical screen cage 11/2 by 4 inches fabricated from 20-mesh stainless steel screening and are sprayed with 50 ml of the stock or diluted formulation. The flies are supplied food and drink from a dextrose solution by draping a paper wick over the outside of the screen cylinder and are able to feed and drink ad libitum. Percent mortality obtained is determined three days after treatment. Results of this test are shown in Table 7 as HF (housefly spray test).

[2] = tested on: Mexican Bean Beetle Larvae; experiment: Residual systemic activity against Mexican bean beetle larvae; details: Epilachna varivestis
Text: Residual Systemic Activity of Compound 7268 Against Mexican Bean Beetle Larvae
Three furrows are opened in soil contained in 8 × 10 × 3 inch fiber pans and 12 Pinto bean seeds are evenly distributed in each furrow. The test compound is Compound 7268. Appropriate volumes of test formulation to give the desired dosages are applied over the seeds in the open furrows, and the furrows are immediately closed. At the indicated weekly intervals, one leaf is harvested from each row, placed onto water agar in a plastic Petri dish, and infested with 10 one-day-old bean beetle larvae. Mortality is determined three days later.

[3] = tested on: Southern army worm (Prodenia eridania); experiment: Southern army worm spray test (AW); details: 72 h; contact activity rating, 50% mortality, three days
Method: as §3, §4
Southern Army Worm Spray Test
Paired fully expanded primary leaves excised from Scarlet runner bean plants are maintained in plastic tubes containing water and sprayed with the test formulation prepared as described in Example 15. After the spray deposit on the leaves is dry, the paired leaves are separated. One leaf is placed onto 1.5 percent water agar and infested with 10 newly hatched Southern army worm larvae. The covered test receptacle is held at 72° F for three days and then the percent mortality is determined. Results of this test are shown in Table 7 as AW (Southern army worm spray test).

Spotted Cucumber Beetle = experiment: Systemic test against spotted cucumber beetle; details: Diabrotica undecimpunctata
Text: as §1, §2

[4] = tested on: melon aphid (Aphis gosyppi); experiment: Systemic activity against melon aphid; details: cucumber seedlings
Text: Systemic Activity of Compound 7268 Against Melon Aphid
The techniques used are essentially the same as for the systemic tests described above in Example 15. The test plants are cucumber seedlings; the test compound is Compound 7268; and the pest is the melon aphid (Aphis gosyppi).

[5] = tested on: Southern corn rootworm (Diabrotica undecimpunctata howardi); experiment: Soil activity against Southern corn rootworm; details: 120 h
Method: Activity of Compound 7268 Against Southern Corn Rootworm
The test organism is a strain of Southern corn rootworm (Diabrotica undecimpunctata howardi) resistant to chlorinated hydrocarbon insecticides and the test compound is Compound 7268. Duplicate samples of sand-soil mixtures are treated with appropriate volumes of test formulation to give the desired dosages. The sand-soil samples are in covered paper cups, and several hours after drenching, all cups are given a thorough shaking to provide complete and uniform mixing of the chemical throughout the soil. One day after treatment, two corn seedlings and five rootworms are placed into each cup and the lids replaced. Five days later, mortality is determined.

CNC(=O)ON=C(CSC)C(C)(C)C [Compound 7268, 3,3-dimethyl-2-methylcarbamyloximino-1-methylthiobutane]
% Mortality (Lygus Bug; 0.5 lb/A, 3 days): 0%
% Mortality (Lygus Bug; 0.5 lb/A, 4 days): 60%
% Mortality (Lygus Bug; 0.5 lb/A, 6 days): 80%
% Mortality (Lygus Bug; 1 lb/A, 3 days): 80%
% Mortality (Lygus Bug; 1 lb/A, 4 days): 80%
% Mortality (Lygus Bug; 1 lb/A, 6 days): 100%
% Mortality (Lygus Bug; 2 lb/A, 3 days): 100%
% Mortality (Lygus Bug; 2 lb/A, 4 days): 100%
% Mortality (Lygus Bug; 2 lb/A, 6 days): 100%
LC50 [1]: 250 to 500 mg/L (≈ 1150 to 2290 µM)
mortality at 280.212 g/ha ([2]; 504 h): 100%
mortality at 560.425 g/ha ([2]; 504 h): 100%
mortality at 1120.85 g/ha ([2]; 504 h): 100%
mortality at 280.212 g/ha ([2]; 1176 h): 100%
mortality at 560.425 g/ha ([2]; 1176 h): 100%
mortality at 1120.85 g/ha ([2]; 1176 h): 100%
mortality at 280.212 g/ha ([2]; 1680 h): 100%
mortality at 560.425 g/ha ([2]; 1680 h): 100%
mortality at 1120.85 g/ha ([2]; 1680 h): 95%
mortality at 280.212 g/ha ([2]; 1848 h): 95%
mortality at 560.425 g/ha ([2]; 1848 h): 70%
mortality at 1120.85 g/ha ([2]; 1848 h): 95%
LC50 [3]: > 500 mg/L
mortality at 560.425 g/ha (Spotted Cucumber Beetle; 72 h): 20%
mortality at 1120.85 g/ha (Spotted Cucumber Beetle; 72 h): 30%
mortality at 2241.7 g/ha (Spotted Cucumber Beetle; 72 h): 60%
mortality at 560.425 g/ha (Spotted Cucumber Beetle; 96 h): 40%
mortality at 1120.85 g/ha (Spotted Cucumber Beetle; 96 h): 100%
mortality at 2241.7 g/ha (Spotted Cucumber Beetle; 96 h): 100%
mortality at 560.425 g/ha (Spotted Cucumber Beetle; 144 h): 80%
mortality at 1120.85 g/ha (Spotted Cucumber Beetle; 144 h): 100%
mortality at 2241.7 g/ha (Spotted Cucumber Beetle; 144 h): 100%
% Control ([4]; 0.062 lb/A): 100%
% Control ([4]; 0.125 lb/A): 100%
% Control ([4]; 0.25 lb/A): 100%
% Control ([4]; 0.5 lb/A): 100%
mortality at 1 lb/6" A [5]: 90%
mortality at 1.25 lb/6" A [5]: 100%
mortality at 2.5 lb/6" A [5]: 100%
